In the supplement of paper PMC10307832:

Assays:
Experiment in all cases: relative viability (nuclei count vs DMSO), 5 days (fraction); higher = more cells survive
Crenolanib + Foretinib = compound: CC1(COc2ccc3c(c2)ncn3-c2ccc3cccc(N4CCC(N)CC4)c3n2)COC1 [Crenolanib] + COc1cc2c(Oc3ccc(NC(=O)C4(C(=O)Nc5ccc(F)cc5)CC4)cc3F)ccnc2cc1OCCCN1CCOCC1 [Foretinib] (partner 0.25 µM)
Summary of the method: (§1)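 Lung cancer cell lines, seeded in 1536-well plates, were treated the following day by pin tool with a single drug or with five library-drug doses (not always all listed) in √10 steps on top of a fixed anchor-drug dose. Cells were fixed and nuclei stained in one step after 5 days, and nuclei were counted. Relative viability is the nuclei count for treated wells divided by that for vehicle wells, reported as medians of duplicate plates.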

Tivantinib + Trametinib = compound: O=C1NC(=O)[C@@H](c2cn3c4c(cccc24)CCC3)[C@@H]1c1c[nH]c2ccccc12 [Tivantinib] + CC(=O)Nc1cccc(-n2c(=O)n(C3CC3)c(=O)c3c(Nc4ccc(I)cc4F)n(C)c(=O)c(C)c32)c1 [Trametinib] (partner 0.02 µM)
Summary of the method: as §1

Crenolanib + Vorinostat = compound: CC1(COc2ccc3c(c2)ncn3-c2ccc3cccc(N4CCC(N)CC4)c3n2)COC1 [Crenolanib] + O=C(CCCCCCC(=O)Nc1ccccc1)NO [Vorinostat] (partner 1 µM)
Summary of the method: as §1

Tivantinib + Navitoclax = compound: O=C1NC(=O)[C@@H](c2cn3c4c(cccc24)CCC3)[C@@H]1c1c[nH]c2ccccc12 [Tivantinib] + CC1(C)CCC(c2ccc(Cl)cc2)=C(CN2CCN(c3ccc(C(=O)NS(=O)(=O)c4ccc(N[C@H](CCN5CCOCC5)CSc5ccccc5)c(S(=O)(=O)C(F)(F)F)c4)cc3)CC2)C1 [Navitoclax] (partner 0.5 µM)
Summary of the method: as §1

Cell Line | relative viability (Crenolanib + Foretinib; first compound 0.01 µM) | relative viability (Crenolanib + Foretinib; first compound 0.03162 µM) | relative viability (Crenolanib + Foretinib; first compound 0.1 µM) | relative viability (Crenolanib + Foretinib; first compound 0.3162 µM) | relative viability (Crenolanib + Foretinib; first compound 1 µM) | relative viability (Tivantinib + Trametinib; first compound 0.01 µM) | relative viability (Tivantinib + Trametinib; first compound 0.03162 µM) | relative viability (Tivantinib + Trametinib; first compound 0.1 µM) | relative viability (Tivantinib + Trametinib; first compound 0.3162 µM) | relative viability (Crenolanib + Vorinostat; first compound 0.01 µM) | relative viability (Crenolanib + Vorinostat; first compound 0.03162 µM) | relative viability (Crenolanib + Vorinostat; first compound 0.1 µM) | relative viability (Crenolanib + Vorinostat; first compound 0.3162 µM) | relative viability (Crenolanib + Vorinostat; first compound 1 µM) | relative viability (Tivantinib + Navitoclax; first compound 0.01 µM) | relative viability (Tivantinib + Navitoclax; first compound 0.03162 µM) | relative viability (Tivantinib + Navitoclax; first compound 0.1 µM) | relative viability (Tivantinib + Navitoclax; first compound 0.3162 µM)
201T | 1.19 | 1.1 | 1.03 | 1.12 | 1.06 | 0.694 | 0.713 | 0.729 | 0.69 | 0.985 | 1 | 0.929 | 0.955 | 0.983 | 1.12 | 1.17 | 1.17 | 1.18
A549 | 0.996 | 0.894 | 0.891 | 1.04 | 1.01 |  |  |  |  |  |  |  |  |  | 1.28 | 1.15 | 1.19 | 1.2
A-427 | 1.05 | 0.969 | 1.14 | 1.1 | 1.09 | 0.795 | 0.786 | 0.737 | 0.673 | 0.848 |  | 0.848 | 0.946 | 0.83 | 0.893 | 0.882 | 0.924 | 0.951
ABC-1 | 1.43 | 0.889 | 1.13 | 1.12 | 1.46 |  |  |  |  | 0.991 | 0.679 | 1.13 | 1.17 | 0.934 |  |  |  | 
BEN | 0.84 | 0.44 | 0.659 | 0.819 | 0.656 | 1.13 | 0.94 | 1.01 | 0.769 | 0.569 | 0.516 | 0.581 | 0.595 | 0.555 | 0.0556 | 0.0502 | 0.07 | 0.0718
CAL-12T | 1.15 | 1.05 | 1.18 | 1.33 | 1.22 | 0.451 | 0.269 | 0.359 | 0.183 | 0.781 | 0.67 | 0.631 | 0.966 | 0.66 | 1.2 | 1.3 | 1.16 | 1.03
COR-L23 | 1 | 0.958 | 0.925 | 0.991 | 0.927 | 0.634 | 0.558 | 0.545 | 0.661 | 0.553 | 0.559 | 0.394 | 0.5 | 0.476 | 1.18 | 1.09 | 0.998 | 1.19
Calu-6 | 0.881 | 0.774 | 0.828 | 0.956 | 0.976 |  |  |  |  |  |  |  |  |  | 0.866 | 0.996 | 0.807 | 0.716
EBC-1 | 0.102 | 0.104 | 0.0945 | 0.106 | 0.115 |  |  |  |  |  |  |  |  |  | 0.505 | 0.46 | 0.414 | 0.293
HCC-44 |  |  |  |  |  | 1.04 | 1.11 | 1.02 | 1.02 | 1.06 | 1.05 | 1.19 | 1.06 | 1.05 | 0.971 | 0.935 | 1.06 | 0.872
IA-LM | 1.37 | 1.1 | 1.08 | 1.22 | 1.3 |  |  |  |  | 1.06 | 0.971 | 0.956 | 0.905 | 0.678 | 0.973 | 0.792 | 0.743 | 0.795
LCLC-103H | 0.947 | 0.88 | 0.874 | 0.826 | 0.622 | 0.6 | 0.736 | 0.69 | 0.668 | 0.752 | 0.791 | 0.754 | 0.811 | 0.746 |  |  |  | 
NCI-H358 | 0.816 | 0.666 | 0.634 | 0.701 | 0.567 | 0.127 | 0.124 | 0.147 | 0.128 | 0.784 | 0.71 | 0.633 | 0.729 | 0.611 |  |  |  | 
NCI-H522 |  |  |  |  |  | 0.859 | 0.605 | 0.815 | 0.645 | 1 | 0.876 | 0.855 | 0.92 | 0.8 |  |  |  | 
NCI-H650 | 1.09 | 0.986 | 0.991 | 1.02 | 1 | 0.936 | 0.787 | 0.899 | 0.945 | 0.408 | 0.42 | 0.468 | 0.368 | 0.417 |  |  |  | 
NCI-H661 | 0.972 | 0.969 | 0.99 | 1.07 | 1.02 | 0.602 | 0.561 | 0.536 | 0.355 | 0.772 | 0.778 | 0.813 | 0.845 | 0.846 |  |  |  | 
NCI-H1299 | 1.1 | 1.04 | 1.06 | 1.05 | 1.11 |  |  |  |  |  |  |  |  |  | 1.01 | 0.998 | 1.06 | 1.05
NCI-H1563 | 0.952 | 0.884 | 0.852 | 0.899 | 0.948 |  |  |  |  |  |  |  |  |  |  |  |  | 
NCI-H1623 | 0.99 | 0.888 | 0.86 | 0.859 | 0.838 |  |  |  |  |  |  |  |  |  |  |  |  | 
NCI-H1648 |  |  |  |  |  |  | 0.505 | 0.343 | 0.31 | 0.599 |  | 0.293 | 0.466 | 0.433 |  |  |  | 
NCI-H1703 | 0.32 | 0.293 | 0.321 | 0.313 | 0.269 |  |  |  |  |  |  |  |  |  | 1.51 | 1.29 | 1.19 | 0.833
NCI-H1792 |  |  |  |  |  | 0.421 |  | 0.394 | 0.37 |  |  |  |  |  | 0.619 | 0.66 | 0.651 | 0.816
NCI-H2342 | 1.01 | 1.02 | 1 | 1.2 | 0.816 | 0.749 | 0.764 | 0.782 | 0.665 | 0.729 | 0.682 | 0.688 | 0.788 | 0.691 |  |  |  | 
SW 900 | 0.69 | 0.91 | 0.818 | 1.15 | 0.848 | 0.775 | 0.649 | 0.734 | 0.763 | 0.548 |  | 0.428 | 0.574 | 0.435 |  |  |  | 
